Experimental data published in PubChem BioAssay AID2060326 (Molecular Pharmacology Branch, DTP, NCI, 2025).

Test system: MDA-MB-468 multi-cell spheroids, viability
Test: Anticancer human tumor MDA-MB-468 cell line growth inhibition [IpAb];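 further: spheroids exposed to agents for seven days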;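 on viability, T/C: 100% = DMSO vehicle control viability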
Conditions: for IC50: curve of first compound; for viability, T/C: stronger effect = lower value
Description: Combinatorial screen of targeted agents with ipatasertib and abemaciclib in multi-cell type tumor spheroids
A high-throughput screen of multi-cell type tumor spheroids was designed to identify active combinations of targeted small molecules and ipatasertib or abemaciclib. Complex spheroids include a stromal component modeled by human endothelial cells (HUVEC) and fibroblasts modeled by human mesenchymal stem cells (MSCs). The concentration ranges selected for each drug and investigational agent were based upon clinically achievable concentrations if the clinical Cmax of the agent was known.
Compounds. The drugs and investigational agents: ipatasertib (NSC767898), abemaciclib(NSC768073), selumetinib (NSC741078), trametinib (758246), adavosertib (NSC754352), everolimus (NSC733504), sapanisertib (NSC764658), vemurafenib (NSC761431), venetoclax (NSC766270), copanlisib (NSC809693), apelisib (NSC765974), palbociblib (NSC758247), vemurafenib (NSC761431), dabrafenib (NSC764134), ravoxertinib (NSC781343), BMS-387032 (NSC767048), sotorasib (NSC818433), talazoparib (NSC767125) and afursertib (NSC778305), were obtained from the National Cancer Institute (NCI) Developmental Therapeutics Program Chemical Repository. The FDA-approved anticancer drug set is available from the NCI Developmental Therapeutics Program. […] The stock solutions were prepared in dimethyl sulfoxide (DMSO, Sigma-Aldrich, St. Louis, MO, cat. D2650) at 800-fold the tested concentration and stored at -70 degrees C prior to their use. All drugs and investigational agents were tested over a range starting from a high concentration at or near the clinical Cmax and decreasing in half-log increments. If the clinical Cmax for an agent had not been determined, the highest concentration tested was 10 microM.
NCI60 Cell Culture. NCI60 cell lines were obtained from the NCI Developmental Therapeutics Program Tumor Repository. For each lot of cells, the Repository performed Applied Biosystems AmpFLSTR Identifiler testing with PCR amplification to confirm consistency with the published Identifier STR profile for each cell line. Cells were kept in continuous culture for no more than 20 passages. The optimal seeding densities for each of the cell lines at each time point assessed were determined prior to performing the concentration response studies. Briefly, the NCI60 human tumor lines were grown as monolayers in RPMI 1640 medium supplemented with 10% FBS and 2 mmol/L L-glutamine.
An additional 9 lines were from the NCI60 cell line panel including MDA-MB-231 breast carcinoma, MDA-MB-468 breast carcinoma, MCF7 breast carcinoma, Hs578T breast carcinoma, MALME-3M melanoma, SK-MEL-2 melanoma, SK-OV-3 ovarian carcinoma, DU-145 prostate carcinoma, PC-3 prostate carcinoma, all cell lines along with major genetic alterations are listed on Table 2. Pooled donor human umbilical vein endothelial cells (HUVEC, Lonza, cat. CC-2519) and human mesenchymal stem cells (hMSC, Lonza, cat. PT-2501) were purchased from Lonza (Walkersville, MD).
PDMR cell lines were grown in complete medium (DC medium): Dulbecco's modified Eagle's medium (DMEM)/F12 supplemented with 5% fetal bovine serum (FBS), 2 mM L-glutamine, 100 U/mL penicillin and 100 µg/ml streptomycin, 0.4 µg/ml hydrocortisone, 10 ng/ml epidermal growth factor (EGF) recombinant human protein, 24 µg/mL adenine, and 0.1 mg/mL primocin. During culture from frozen stock vials, PDMR cells were cultured in the same medium containing 10 µM Y-27632 (see Table 3). The PDCs were cultured in complete DMEM/F12 media without 10 microM Y-27632 dihydrochloride for at least two passages prior to the screen. The pooled donor HUVEC and hMSC were cultured in endothelial cell growth medium 2 (PromoCell, Heidelberg, Germany, cat. C-22011) and mesenchymal stem cell growth medium 2 (PromoCell, cat. C-28009), respectively. For all experiments, HUVEC and hMSC were used at passages </=5.
[…]

[1] = second compound 0.01 µM, first compound 0.0316 µM
[2] = second compound 0.01 µM, first compound 0.1 µM
[3] = second compound 0.01 µM, first compound 0.316 µM
[4] = second compound 0.01 µM, first compound 1 µM
[5] = second compound 0.01 µM, first compound 3.16 µM
[6] = second compound 0.01 µM, first compound 10 µM
[7] = second compound 0.0316 µM, first compound 0.0316 µM
[8] = second compound 0.0316 µM, first compound 0.1 µM
[9] = second compound 0.0316 µM, first compound 0.316 µM
[10] = second compound 0.0316 µM, first compound 1 µM
[11] = second compound 0.0316 µM, first compound 3.16 µM
[12] = second compound 0.0316 µM, first compound 10 µM
[13] = second compound 0.1 µM, first compound 0.0316 µM
[14] = second compound 0.1 µM, first compound 0.1 µM
[15] = second compound 0.1 µM, first compound 0.316 µM
[16] = second compound 0.1 µM, first compound 1 µM
[17] = second compound 0.1 µM, first compound 3.16 µM
[18] = second compound 0.1 µM, first compound 10 µM
[19] = second compound 0.316 µM, first compound 0.0316 µM
[20] = second compound 0.316 µM, first compound 0.1 µM
[21] = second compound 0.316 µM, first compound 0.316 µM
[22] = second compound 0.316 µM, first compound 1 µM
[23] = second compound 0.316 µM, first compound 3.16 µM
[24] = second compound 0.316 µM, first compound 10 µM
[25] = second compound 1 µM, first compound 0.0316 µM
[26] = second compound 1 µM, first compound 0.1 µM
[27] = second compound 1 µM, first compound 0.316 µM
[28] = second compound 1 µM, first compound 1 µM
[29] = second compound 1 µM, first compound 3.16 µM
[30] = second compound 1 µM, first compound 10 µM

| SMILES | IC50 (second compound 0.01 µM) [nM] | IC50 (second compound 0.0316 µM) [nM] | IC50 (second compound 0.1 µM) [nM] | IC50 (second compound 0.316 µM) [nM] | IC50 (second compound 1 µM) [nM] | viability, T/C [1] [%] | viability, T/C [2] [%] | viability, T/C [3] [%] | viability, T/C [4] [%] | viability, T/C [5] [%] | viability, T/C [6] [%] | viability, T/C [7] [%] | viability, T/C [8] [%] | viability, T/C [9] [%] | viability, T/C [10] [%] | viability, T/C [11] [%] | viability, T/C [12] [%] | viability, T/C [13] [%] | viability, T/C [14] [%] | viability, T/C [15] [%] | further results |
| --- | --- | --- | --- | --- | --- | --- | --- | --- | --- | --- | --- | --- | --- | --- | --- | --- | --- | --- | --- | --- | --- |
| C=CCn1c(=O)c2cnc(Nc3ccc(N4CCN(C)CC4)cc3)nc2n1-c1cccc(C(C)(C)O)n1 + CCN1CCN(Cc2ccc(Nc3ncc(F)c(-c4cc(F)c5nc(C)n(C(C)C)c5c4)n3)nc2)CC1 | 467 | 461 | 408 | 560 | 417 | 108 | 75.5 | 72.8 | 6.04 | 2.55 | 2.34 | 96.3 | 87.9 | 71.3 | 6.12 | 2.93 | 2.24 | 121 | 93.1 | 67.3 | viability, T/C [16]: 5.75%; viability, T/C [17]: 3.42%; viability, T/C [18]: 2.91%; viability, T/C [19]: 105%; viability, T/C [20]: 102%; viability, T/C [21]: 89.7%; viability, T/C [22]: 9.63%; viability, T/C [23]: 3.67%; viability, T/C [24]: 2.2%; viability, T/C [25]: 72.3%; viability, T/C [26]: 79.5%; viability, T/C [27]: 63.5%; viability, T/C [28]: 6.76%; viability, T/C [29]: 2.84%; viability, T/C [30]: 1.01% |
| Cn1nccc1Nc1nccc(-c2ccn(C(CO)c3ccc(Cl)c(F)c3)c(=O)c2)n1 (stereo not given) + CCN1CCN(Cc2ccc(Nc3ncc(F)c(-c4cc(F)c5nc(C)n(C(C)C)c5c4)n3)nc2)CC1 | 4350 | 4700 | 3830 | 4190 | 4420 | 92 | 83 | 86 | 77.7 | 70 | 3.11 | 93.3 | 77.9 | 71 | 84.6 | 73.1 | 6.23 | 93.6 | 87.5 | 86.2 | viability, T/C [16]: 83.1%; viability, T/C [17]: 58.5%; viability, T/C [18]: 5.62%; viability, T/C [19]: 104%; viability, T/C [20]: 92.2%; viability, T/C [21]: 89.2%; viability, T/C [22]: 78.7%; viability, T/C [23]: 68.2%; viability, T/C [24]: 9.01%; viability, T/C [25]: 86.5%; viability, T/C [26]: 78.8%; viability, T/C [27]: 74.5%; viability, T/C [28]: 85.9%; viability, T/C [29]: 64.2%; viability, T/C [30]: 15.3% |
